# Data from patent publication US20250255867A1 (Kadmon Corporation, LLC, priority 2022, published 2025).
# Experimental: All responses were assessed by the investigators.
# Reported Adverse Events. […] All-cause mortality data collected during the study were assessed for all enrolled participants. Disease progression related death was not reported as AE.
# Number of Participants With Treatment-emergent Adverse Events (TEAEs), and Treatment-emergent Serious Adverse Events (TESAEs). […] TEAEs included both SAEs and non-SAEs. […] Analysis was performed on safety population which included all participants who received at least 1 dose of study medication.
compound,measurement,setting,value
"CC(C)NC(=O)COc1cccc(-c2nc(Nc3ccc4[nH]ncc4c3)c3ccccc3n2)c1 [Belumosudil, 2-{3-[4-(1H-indazol-5-ylamino)-2-quinazolinyl]phenoxy}-N-(propan-2-yl) acetamide]",Urinary retention: # Events,Cohort 2 200 mg BID,2
same,Urinary retention: Affected/At Risk,Cohort 2 200 mg BID,1/16
same,Urinary retention: Affected/At Risk (%),Cohort 2 200 mg BID,(6.25%)
same,Urinary tract infection: # Events,Cohort 2 200 mg BID,2
same,Urinary tract infection: Affected/At Risk,Cohort 2 200 mg BID,2/16
same,Urinary tract infection: Affected/At Risk (%),Cohort 2 200 mg BID,(12.5%)
same,Urinary tract pain: # Events,Cohort 2 200 mg BID,1
same,Urinary tract pain: Affected/At Risk,Cohort 2 200 mg BID,1/16
same,Urinary tract pain: Affected/At Risk (%),Cohort 2 200 mg BID,(6.25%)
same,Urine output decreased: # Events,Cohort 2 200 mg BID,1
same,Urine output decreased: Affected/At Risk,Cohort 2 200 mg BID,1/16
same,Urine output decreased: Affected/At Risk (%),Cohort 2 200 mg BID,(6.25%)
same,Vascular access complication: # Events,Cohort 2 200 mg BID,1
same,Vascular access complication: Affected/At Risk,Cohort 2 200 mg BID,1/16
same,Vascular access complication: Affected/At Risk (%),Cohort 2 200 mg BID,(6.25%)
same,Vertigo: # Events,Cohort 2 200 mg BID,0
same,Vertigo: Affected/At Risk,Cohort 2 200 mg BID,0/16
same,Vertigo: Affected/At Risk (%),Cohort 2 200 mg BID,(0%)
same,Vision blurred: # Events,Cohort 2 200 mg BID,2
same,Vision blurred: Affected/At Risk,Cohort 2 200 mg BID,2/16
same,Vision blurred: Affected/At Risk (%),Cohort 2 200 mg BID,(12.5%)
same,Vomiting: # Events,Cohort 2 200 mg BID,3
same,Vomiting: Affected/At Risk,Cohort 2 200 mg BID,3/16
same,Vomiting: Affected/At Risk (%),Cohort 2 200 mg BID,(18.75%)
same,Weight decreased: # Events,Cohort 2 200 mg BID,0
same,Weight decreased: Affected/At Risk,Cohort 2 200 mg BID,0/16
same,Weight decreased: Affected/At Risk (%),Cohort 2 200 mg BID,(0%)
same,Weight increased: # Events,Cohort 2 200 mg BID,2
same,Weight increased: Affected/At Risk,Cohort 2 200 mg BID,1/16
same,Weight increased: Affected/At Risk (%),Cohort 2 200 mg BID,(6.25%)
same,White blood cell count decreased: # Events,Cohort 2 200 mg BID,0
same,White blood cell count decreased: Affected/At Risk,Cohort 2 200 mg BID,0/16
same,White blood cell count decreased: Affected/At Risk (%),Cohort 2 200 mg BID,(0%)
same,"ALT/AST increased all grade, No.",Cohort 2 200 mg BID n=16,5
same,"ALT/AST increased grade ≥3, No.",Cohort 2 200 mg BID n=16,2
same,"Anemia grade ≥3, No.",Cohort 2 200 mg BID n=16,1
same,"Any AE, No. of patients",Cohort 2 200 mg BID n=16,16
same,"Cough all grade, No.",Cohort 2 200 mg BID n=16,4
same,"Death, No.",Cohort 2 200 mg BID n=16,0
same,"Diarrhea all grade, No.",Cohort 2 200 mg BID n=16,5
same,"Drug-related AE, No.",Cohort 2 200 mg BID n=16,8
same,"Drug-related SAE, No.",Cohort 2 200 mg BID n=16,0
same,"Dyspnea all grade, No.",Cohort 2 200 mg BID n=16,6
same,"Dyspnea grade ≥3, No.",Cohort 2 200 mg BID n=16,2
same,"Fatigue all grade, No.",Cohort 2 200 mg BID n=16,3
same,"Grade ≥3 AE, No.",Cohort 2 200 mg BID n=16,10
same,"Headache all grade, No.",Cohort 2 200 mg BID n=16,3
same,"Hyperglycemia grade ≥3, No.",Cohort 2 200 mg BID n=16,0
same,"Hypertension all grade, No.",Cohort 2 200 mg BID n=16,2
same,"Hypoxia grade ≥3, No.",Cohort 2 200 mg BID n=16,1
same,"Lung infection or pneumonia grade ≥3, No.",Cohort 2 200 mg BID n=16,2
same,"Nausea all grade, No.",Cohort 2 200 mg BID n=16,4
same,"Peripheral edema all grade, No.",Cohort 2 200 mg BID n=16,4
same,"SAE, No.",Cohort 2 200 mg BID n=16,6
same,"URI all grade, No.",Cohort 2 200 mg BID n=16,9
same,Patients with relative dose intensity >95%,Cohort 3,71%
same,Abdominal distension: # Events,Cohort 3 400 mg QD,1
same,Abdominal distension: Affected/At Risk,Cohort 3 400 mg QD,1/21
same,Abdominal distension: Affected/At Risk (%),Cohort 3 400 mg QD,(4.76%)
same,Abdominal pain upper: # Events,Cohort 3 400 mg QD,0
same,Abdominal pain upper: Affected/At Risk,Cohort 3 400 mg QD,0/21
same,Abdominal pain upper: Affected/At Risk (%),Cohort 3 400 mg QD,(0%)
same,Abdominal pain: # Events,Cohort 3 400 mg QD,6
same,Abdominal pain: Affected/At Risk,Cohort 3 400 mg QD,4/21
same,Abdominal pain: Affected/At Risk (%),Cohort 3 400 mg QD,(19.05%)
same,Actinic keratosis: # Events,Cohort 3 400 mg QD,1
same,Actinic keratosis: Affected/At Risk,Cohort 3 400 mg QD,1/21
same,Actinic keratosis: Affected/At Risk (%),Cohort 3 400 mg QD,(4.76%)
same,Acute kidney injury: # Events,Cohort 3 400 mg QD,6
same,Acute kidney injury: Affected/At Risk,Cohort 3 400 mg QD,2/21
same,Acute kidney injury: Affected/At Risk (%),Cohort 3 400 mg QD,(9.52%)
same,Acute respiratory distress syndrome: # Events,Cohort 3 400 mg QD,0
same,Acute respiratory distress syndrome: Affected/At Risk,Cohort 3 400 mg QD,0/21
same,Acute respiratory distress syndrome: Affected/At Risk (%),Cohort 3 400 mg QD,(0%)
same,Adrenal insufficiency: # Events,Cohort 3 400 mg QD,0
same,Adrenal insufficiency: Affected/At Risk,Cohort 3 400 mg QD,0/21
same,Adrenal insufficiency: Affected/At Risk (%),Cohort 3 400 mg QD,(0%)
same,Alanine aminotransferase increased: # Events,Cohort 3 400 mg QD,2
same,Alanine aminotransferase increased: Affected/At Risk,Cohort 3 400 mg QD,2/21
same,Alanine aminotransferase increased: Affected/At Risk (%),Cohort 3 400 mg QD,(9.52%)
same,Anaemia: # Events,Cohort 3 400 mg QD,0
same,Anaemia: Affected/At Risk,Cohort 3 400 mg QD,0/21
same,Anaemia: Affected/At Risk (%),Cohort 3 400 mg QD,(0%)
same,Anal incontinence: # Events,Cohort 3 400 mg QD,0
same,Anal incontinence: Affected/At Risk,Cohort 3 400 mg QD,0/21
same,Anal incontinence: Affected/At Risk (%),Cohort 3 400 mg QD,(0%)
same,Anxiety: # Events,Cohort 3 400 mg QD,3
same,Anxiety: Affected/At Risk,Cohort 3 400 mg QD,3/21
same,Anxiety: Affected/At Risk (%),Cohort 3 400 mg QD,(14.29%)
same,Arthralgia: # Events,Cohort 3 400 mg QD,6
same,Arthralgia: Affected/At Risk,Cohort 3 400 mg QD,5/21
same,Arthralgia: Affected/At Risk (%),Cohort 3 400 mg QD,(23.81%)
same,Aspartate aminotransferase increased: # Events,Cohort 3 400 mg QD,1
same,Aspartate aminotransferase increased: Affected/At Risk,Cohort 3 400 mg QD,1/21
same,Aspartate aminotransferase increased: Affected/At Risk (%),Cohort 3 400 mg QD,(4.76%)
same,Asthenia: # Events,Cohort 3 400 mg QD,0
same,Asthenia: Affected/At Risk,Cohort 3 400 mg QD,0/21
same,Asthenia: Affected/At Risk (%),Cohort 3 400 mg QD,(0%)
same,Atelectasis: # Events,Cohort 3 400 mg QD,0
same,Atelectasis: Affected/At Risk,Cohort 3 400 mg QD,0/21
same,Atelectasis: Affected/At Risk (%),Cohort 3 400 mg QD,(0%)
same,Back pain: # Events,Cohort 3 400 mg QD,1
same,Back pain: Affected/At Risk,Cohort 3 400 mg QD,1/21
same,Back pain: Affected/At Risk (%),Cohort 3 400 mg QD,(4.76%)
same,Balance disorder: # Events,Cohort 3 400 mg QD,0
same,Balance disorder: Affected/At Risk,Cohort 3 400 mg QD,0/21
same,Balance disorder: Affected/At Risk (%),Cohort 3 400 mg QD,(0%)
same,Basal cell carcinoma: # Events,Cohort 3 400 mg QD,0
same,Basal cell carcinoma: Affected/At Risk,Cohort 3 400 mg QD,0/21
same,Basal cell carcinoma: Affected/At Risk (%),Cohort 3 400 mg QD,(0%)
same,Benign prostatic hyperplasia: # Events,Cohort 3 400 mg QD,0
same,Benign prostatic hyperplasia: Affected/At Risk,Cohort 3 400 mg QD,0/21
same,Benign prostatic hyperplasia: Affected/At Risk (%),Cohort 3 400 mg QD,(0%)
same,Blepharitis: # Events,Cohort 3 400 mg QD,2
same,Blepharitis: Affected/At Risk,Cohort 3 400 mg QD,1/21
same,Blepharitis: Affected/At Risk (%),Cohort 3 400 mg QD,(4.76%)
same,Blister: # Events,Cohort 3 400 mg QD,1
same,Blister: Affected/At Risk,Cohort 3 400 mg QD,1/21
same,Blister: Affected/At Risk (%),Cohort 3 400 mg QD,(4.76%)
same,Blood alkaline phosphatase increased: # Events,Cohort 3 400 mg QD,0
same,Blood alkaline phosphatase increased: Affected/At Risk,Cohort 3 400 mg QD,0/21
same,Blood alkaline phosphatase increased: Affected/At Risk (%),Cohort 3 400 mg QD,(0%)
same,Blood chloride decreased: # Events,Cohort 3 400 mg QD,0
same,Blood chloride decreased: Affected/At Risk,Cohort 3 400 mg QD,0/21
same,Blood chloride decreased: Affected/At Risk (%),Cohort 3 400 mg QD,(0%)
same,Blood cholesterol increased: # Events,Cohort 3 400 mg QD,1
same,Blood cholesterol increased: Affected/At Risk,Cohort 3 400 mg QD,1/21
same,Blood cholesterol increased: Affected/At Risk (%),Cohort 3 400 mg QD,(4.76%)
same,Blood creatine increased: # Events,Cohort 3 400 mg QD,0
same,Blood creatine increased: Affected/At Risk,Cohort 3 400 mg QD,0/21
same,Blood creatine increased: Affected/At Risk (%),Cohort 3 400 mg QD,(0%)
same,Blood creatine phosphokinase increased: # Events,Cohort 3 400 mg QD,0
same,Blood creatine phosphokinase increased: Affected/At Risk,Cohort 3 400 mg QD,0/21
same,Blood creatine phosphokinase increased: Affected/At Risk (%),Cohort 3 400 mg QD,(0%)
same,Blood creatinine increased: # Events,Cohort 3 400 mg QD,2
same,Blood creatinine increased: Affected/At Risk,Cohort 3 400 mg QD,2/21
same,Blood creatinine increased: Affected/At Risk (%),Cohort 3 400 mg QD,(9.52%)
